Test results reported in US8592161B2, “Mutational profiles in HIV-1 protease correlated with phenotypic drug resistance” (Janssen R&D Ireland, priority 2002, dated 2013).
pEC50: −log10 of the molar value.

Key:
Assay type in all cases: cell-based
[1] = tested on: HIV-1 starting strain of Table 4 (no compound, no mutations); experiment: In vitro antiviral activity in acutely infected MT4 cells, starting strain; conditions: for pEC50: Human immunodeficiency virus 1, starting strain HIV-1, no compound, read-out: median EC50; for median FC (fold change in EC50 as compared to wild type): starting strain HIV-1, no compound
Protocol: (§1) Determination of the antiviral activity of a compound was done as described in Pauwels R. et al. (J Virol Methods 1988; 20(4):309-21). Various concentrations of the test compounds were brought into each well of a flat-bottom microtiter plate. Subsequently, HIV and MT4 cells were added to a final concentration of 200-250 50% cell culture infectious doses (CCID50)/well and 30,000 cells/well, respectively. After 5 days of incubation (37° C., 5% CO2), the cytopathic effect of the replicating virus was determined by the tetrazolium colorimetric MTT method. The dose protecting 50% of the cells from virus cytopathic effect was defined as the EC50, while the dose achieving 90% protection was defined as the EC90.
(§2) MT4-LTR-EGFP cells were infected at a multiplicity of infection (MOI) of 0.01 to 0.001 CCID50/cell in the presence of inhibitor. The starting concentration of the inhibitor was two to tee times the EC50, a suboptimal concentration. The cultures were sub-cultivated and scored microscopically on virus-induced fluorescence and cytopathicity every 3-4 days. The cultures were sub-cultivated in the presence of the same compound concentration until signs of virus replication were observed. The escaping virus was further cultivated in the presence of the same inhibitor concentration in order to enrich the population in resistant variants. If full virus breakthrough was observed the supernatant was collected and stored (new virus strain). Afterwards, the same virus was challenged with a higher compound concentration in order to select variants able to grow in the presence of as high as possible inhibitor concentrations. From the new viruses, a virus stock was grown in the absence of inhibitor.
(§3) In vitro drug selection experiments starting from wild-type HIV-1 under pressure of compound 1, compound 2, and Nelfinavir (NFV) have been performed. Tables 1, 2, 3, 4, and 5 show the genotypic and phenotypic characterization of the selected strains.

[2] = tested on: HIV-1 strain selected with Comp 1 (20 nM, 94 days), protease R41G/R V82V/I; experiment: In vitro antiviral activity in acutely infected MT4 cells, selected strain; conditions: for pEC50: Human immunodeficiency virus 1, Table 4, strain R41G/R V82V/I (Comp 1 20 nM, 94 days), read-out: median EC50; for median FC (fold change in EC50 as compared to wild type): Table 4, strain R41G/R V82V/I (Comp 1 20 nM, 94 days)
Protocol: as §1, §2, §3

[3] = tested on: HIV-1/LAI strain selected with Comp 1 (100 nM, 139 days), protease S37S/N R41R/K K70E; experiment: as above; conditions: for pEC50: Human immunodeficiency virus 1, Table 2, strain S37S/N R41R/K K70E (Comp 1 100 nM, 139 days), read-out: median EC50; for median FC (fold change in EC50 as compared to wild type): Table 2, strain S37S/N R41R/K K70E (Comp 1 100 nM, 139 days)
Protocol: as §1, §2, §3

[4] = tested on: HIV-1/LAI strain selected with NFV (1000 nM, 35 days), protease D30N M46I; experiment: as above; conditions: for pEC50: Human immunodeficiency virus 1, Table 5, strain D30N M46I (NFV 1000 nM, 35 days), read-out: median EC50; for median FC (fold change in EC50 as compared to wild type): Table 5, strain D30N M46I (NFV 1000 nM, 35 days)
Protocol: as §1, §2, §3

[5] = tested on: HIV-1 strain selected with Comp 1 (40 nM, 175 days), protease R41G V82I; experiment: as above; conditions: for pEC50: Human immunodeficiency virus 1, Table 4, strain R41G V82I (Comp 1 40 nM, 175 days), read-out: median EC50; for median FC (fold change in EC50 as compared to wild type): Table 4, strain R41G V82I (Comp 1 40 nM, 175 days)
Protocol: as §1, §2, §3

[6] = tested on: HIV-1 strain selected with Comp 1 (40 nM, 161 days), protease R41G V82I; experiment: as above; conditions: for pEC50: Human immunodeficiency virus 1, Table 4, strain R41G V82I (Comp 1 40 nM, 161 days), read-out: median EC50; for median FC (fold change in EC50 as compared to wild type): Table 4, strain R41G V82I (Comp 1 40 nM, 161 days)
Protocol: as §1, §2, §3

[7] = tested on: HIV-1/LAI strain selected with Comp 1 (100 nM, 195 days), protease S37N R41S K70E; experiment: as above; conditions: for pEC50: Human immunodeficiency virus 1, Table 2, strain S37N R41S K70E (Comp 1 100 nM, 195 days), read-out: median EC50; for median FC (fold change in EC50 as compared to wild type): Table 2, strain S37N R41S K70E (Comp 1 100 nM, 195 days)
Protocol: as §1, §2, §3

[8] = tested on: HIV-1/LAI strain selected with NFV (9000 nM, 11l days), protease L10F D30N R41R/K K45I/K M46I V77I I84V/I I85V/I N88D; experiment: as above; conditions: for pEC50: Human immunodeficiency virus 1, Table 5, strain L10F D30N R41R/K K45I/K M46I V77I I84V/I I85V/I N88D (NFV 9000 nM, 11l days), read-out: median EC50; for median FC (fold change in EC50 as compared to wild type): Table 5, strain L10F D30N R41R/K K45I/K M46I V77I I84V/I I85V/I N88D (NFV 9000 nM, 11l days)
Protocol: as §1, §2, §3

[9] = tested on: HIV-1/LAI strain selected with Compound 1 (30 nM, 45 days), protease R41T; experiment: as above; conditions: for pEC50: Human immunodeficiency virus 1, Table 1, strain R41T (Compound 1 30 nM, 45 days), read-out: median EC50; for median FC (fold change in EC50 as compared to wild type): Table 1, strain R41T (Compound 1 30 nM, 45 days)
Protocol: as §1, §2, §3

[10] = tested on: HIV-1/LAI strain selected with Comp 1 (30 nM, 70 days), protease K70E; experiment: as above; conditions: for pEC50: Human immunodeficiency virus 1, Table 2, strain K70E (Comp 1 30 nM, 70 days), read-out: median EC50; for median FC (fold change in EC50 as compared to wild type): Table 2, strain K70E (Comp 1 30 nM, 70 days)
Protocol: as §1, §2, §3

[11] = tested on: HIV-1/LAI strain selected with NFV (9000 nM, 140 days), protease L10F D30N R41R/K K45I/K M46I V77I I84V N88D; experiment: as above; conditions: for pEC50: Human immunodeficiency virus 1, Table 5, strain L10F D30N R41R/K K45I/K M46I V77I I84V N88D (NFV 9000 nM, 140 days), read-out: median EC50; for median FC (fold change in EC50 as compared to wild type): Table 5, strain L10F D30N R41R/K K45I/K M46I V77I I84V N88D (NFV 9000 nM, 140 days)
Protocol: as §1, §2, §3

[12] = tested on: HIV-1/LAI strain selected with Compound 2 (100 nM), protease R41I; Table 3; experiment: as above; conditions: Human immunodeficiency virus 1, R41I strain selected with Compound 2 100 nM (head lists 116, 200, 264 days; assignment unclear), read-out: median EC50
Protocol: as §1, §2, §3

[13] = tested on: HIV-1/LAI strain selected with Compound 1 (100 nM, 188 days), protease R41T K70E; experiment: as above; conditions: for pEC50: Human immunodeficiency virus 1, Table 1, strain R41T K70E (Compound 1 100 nM, 188 days), read-out: median EC50; for median FC (fold change in EC50 as compared to wild type): Table 1, strain R41T K70E (Compound 1 100 nM, 188 days)
Protocol: as §1, §2, §3

[14] = tested on: HIV-1/LAI strain selected with Comp 1 (200 nM, 328 days), protease S37N R41S K70E; experiment: as above; conditions: for pEC50: Human immunodeficiency virus 1, Table 2, strain S37N R41S K70E (Comp 1 200 nM, 328 days), read-out: median EC50; for median FC (fold change in EC50 as compared to wild type): Table 2, strain S37N R41S K70E (Comp 1 200 nM, 328 days)
Protocol: as §1, §2, §3

SMILES | pEC50 [1] | median FC (fold change in EC50 as compared to wild type) [1] | pEC50 [2] | median FC (fold change in EC50 as compared to wild type) [2] | pEC50 [3] | median FC (fold change in EC50 as compared to wild type) [3] | pEC50 [4] | median FC (fold change in EC50 as compared to wild type) [4] | pEC50 [5] | median FC (fold change in EC50 as compared to wild type) [5] | pEC50 [6] | median FC (fold change in EC50 as compared to wild type) [6] | pEC50 [7] | median FC (fold change in EC50 as compared to wild type) [7] | pEC50 [8] | median FC (fold change in EC50 as compared to wild type) [8] | pEC50 [9] | median FC (fold change in EC50 as compared to wild type) [9] | pEC50 [10] | median FC (fold change in EC50 as compared to wild type) [10] | also measured
CC(C)CN(C[C@@H](O)[C@H](Cc1ccccc1)NC(=O)O[C@H]1CCOC1)S(=O)(=O)c1ccc(N)cc1 [Amprenavir] | 7.59 | 1 | 8.14 | 0 | 7.62 | 1 | 7.55 | 1 | 8.03 | 0 | 8.18 | 0 | 7.85 | 1 | 7.02 | 5 | 7.42 | 1 | 7.25 | 3 | pEC50 [11]: 6.72; median FC (fold change in EC50 as compared to wild type) [11]: 10; pEC50 [12]: 7.85; pEC50 [13]: 7.41; median FC (fold change in EC50 as compared to wild type) [13]: 1; pEC50 [14]: 7.82; median FC (fold change in EC50 as compared to wild type) [14]: 1
CC(C)(C)NC(=O)[C@@H]1CN(Cc2cccnc2)CCN1C[C@@H](O)C[C@@H](Cc1ccccc1)C(=O)N[C@H]1c2ccccc2C[C@H]1O [Indinavir] | 8.62 | 0 | 8.51 | 0 | 8.20 | 1 | 8.10 | 1 | 8.41 | 0 | 8.68 | 0 | 8.04 | 1 | 7.00 | 8 | 7.48 | 1 | 7.74 | 2 | pEC50 [11]: 7.55; median FC (fold change in EC50 as compared to wild type) [11]: 2; pEC50 [12]: 7.72; pEC50 [13]: 6.85; median FC (fold change in EC50 as compared to wild type) [13]: 5; pEC50 [14]: 8.26; median FC (fold change in EC50 as compared to wild type) [14]: 0.5
Cc1c(O)cccc1C(=O)N[C@@H](CSc1ccccc1)[C@H](O)CN1C[C@H]2CCCC[C@H]2C[C@H]1C(=O)NC(C)(C)C [Nelfinavir] | 7.51 | 1 | 8.24 | 0 | 8.01 | 0.3 | 6.48 | 9 | 7.80 | 0 | 7.96 | 0 | 8.02 | 0.3 | 5.14 | 200 | 7.49 | 1 | 7.41 | 1 | pEC50 [11]: 5.17; median FC (fold change in EC50 as compared to wild type) [11]: 200; pEC50 [12]: 7.80; pEC50 [13]: 7.43; median FC (fold change in EC50 as compared to wild type) [13]: 1; pEC50 [14]: 8.72; median FC (fold change in EC50 as compared to wild type) [14]: 0.1
CC(C)(C)NC(=O)[C@@H]1C[C@@H]2CCCC[C@@H]2CN1C[C@@H](O)[C@H](Cc1ccccc1)NC(=O)[C@H](CC(N)=O)NC(=O)c1ccc2ccccc2n1 [Saquinavir] | 8.05 | 2 | 9.05 | 0 | 9.15 | 0.1 | 8.74 | 0 | 9.10 | 0 | 9.00 | 0 | 9.05 | 0.2 | 7.82 | 3 | 7.52 | 4 | 8.22 | 1 | pEC50 [11]: 7.47; median FC (fold change in EC50 as compared to wild type) [11]: 6; pEC50 [13]: 6.82; median FC (fold change in EC50 as compared to wild type) [13]: 20; pEC50 [14]: 8.40; median FC (fold change in EC50 as compared to wild type) [14]: 1
